According to US20170029355A1, “LABILE ESTERS OF AGROCHEMICALS FOR CONTROLLED RELEASE AND REDUCTION OF OFF-SITE MOVEMENT” (Monsanto Technology LLC, priority 2011, published 2017):
Read-outs that look alike come from different tables or passages of the source. Each block holds one compound with its values, some of them ahead of it.

Assays:
[1] = In vitro photo-release and hydrolytic release of dicamba in an aqueous medium (Example 36); format: physicochemical; conditions: 0.01 mM (0.005 mM for diesters); for Conversion to Dicamba, Dark, Day 0 / Conversion to Dicamba, Dark, Day 1 / Conversion to Dicamba, Dark, Day 2 / Conversion to Dicamba, Dark, Day 3 / Conversion to Dicamba, Dark, Day 4 / Conversion to Dicamba, Dark, Day 7 / Conversion to Dicamba, Dark, Day 14 / Conversion to dicamba, Dark, Day 10 / Conversion to Dicamba, Dark, Day 21 / Conversion to Dicamba, Dark, Day 28: amber (dark) bottle; for Conversion to Dicamba, Light, Day 0 / Conversion to Dicamba, Light, Day 1 / Conversion to Dicamba, Light, Day 2 / Conversion to Dicamba, Light, Day 3 / Conversion to Dicamba, Light, Day 4 / Conversion to Dicamba, Light, Day 7 / Conversion to Dicamba, Light, Day 14 / Conversion to dicamba, Light, Day 10 / Conversion to Dicamba, Light, Day 21 / Conversion to Dicamba, Light, Day 28: quartz tube
Description: This Example describes the determination of photo-lability and hydrolytic lability of dicamba esters in an aqueous medium. 1 mM solutions of the esters were prepared in acetonitrile (or […] solutions of dicamba diesters). The solutions were then diluted with deionized water to a concentration of 0.01 mM (or 0.005 mM for diesters). The solutions were then transferred to quartz tubes and amber bottles and held in a growth chamber by the procedure of Example 26. A 14-hour day was generally used at a constant temperature of 35° C. Hydrolytic activity was assessed by measuring the increase in dicamba concentration after day zero in the amber (dark) bottles. […] Photolysis manifested itself as increased conversion in the quartz tubes compared to the dark control.
This Example provides the results of an aqueous lability test following the protocol of Example 35 for several dicamba esters which convert to dicamba primarily by hydrolysis. As shown by the results in the table below, conversion of the dark controls generally equaled or exceeded conversion in the photolysis solutions.

[2] = system: velvetleaf; assay: Greenhouse post-emergent control of velvetleaf by emulsifiable concentrates (Example 37); format: in vivo; conditions: for pest or weed control at 140 g/ha / pest or weed control at 280 g/ha / pest or weed control at 420 g/ha / pest or weed control at 560 g/ha: Abutilon theophrasti, post-emergence, 504 h; for pest or weed control at 140 g/ha: read-out: % Control of velvetleaf, 140 g/ha; for pest or weed control at 280 g/ha: read-out: % Control of velvetleaf, 280 g/ha; for pest or weed control at 420 g/ha: read-out: % Control of velvetleaf, 420 g/ha; for pest or weed control at 560 g/ha: read-out: % Control of velvetleaf, 560 g/ha
Description: (§1) The efficacy of some photo-labile ester formulations from Example 28 for post-emergent control of velvetleaf was tested in the greenhouse. All formulations were tested at rates of 140, 280, 420, and 560 g dicamba equivalent per hectare rates and compared to the diglycolamine salt of dicamba (CLARITY®) at the same rates and untreated control plants. The velvetleaf plants were 10-15 cm in height at the time of spraying. Percent control was evaluated three weeks after treatment.
The methodology of Example 29 was used to evaluate the efficacy of several esters of dicamba which convert to dicamba by hydrolysis for post-emergent control of velvetleaf as emulsifiable concentrate formulations.

[3] = In vitro dicamba photo-release from photo-labile dicamba esters, acetonitrile/10% water solvent (Example 27); format: physicochemical; conditions: acetonitrile containing 10% water
Description: (§2) This Example describes in vitro testing of dicamba photo-release by homogeneous solutions of photo-labile dicamba esters. The esters were dissolved in tetrahydrofuran (THF). Ester concentration was 0.1 mM. 25 ml of the solution was transferred to 22 mm tubes fabricated from graded seal quartz tubing with a 19/22 tapered seal at the top, which was closed with a tapered glass plug and secured with a plastic ring clamp. The solution was entirely below the quartz-to-glass transition, ensuring that the entire volume was exposed to the full spectrum.
(§3) The sealed tubes were placed in a Growth Chamber where they were exposed to simulated sunlight for 14 hours per day at 35° C. Dicamba concentrations in the solution were measured during the course of the photolysis.
(§4) A sample of the initial solution was reserved in a glass vial away from the light source and analyzed at the conclusion of the study, providing a measurement of the amount of dicamba present without illumination of the photolysis solution (the “dark control”).
This Example is another photolysis of photo-labile dicamba esters, but using acetonitrile containing 10% water by weight as the solvent. The experimental protocol is otherwise the same as in Example 18.

[4] = In vitro dicamba photo-release from photo-labile dicamba esters, tetrahydrofuran solvent (Example 26); format: physicochemical; conditions: THF, 0.1 mM ester
Description: as §2, §3, §4

[5] = system: broadleaf weeds; assay: Control of broadleaf weeds by ester concentrates (statements of the description); format: in vivo; conditions: emulsifiable and suspension concentrates; Sesbania macrocarpa, morning glory, velvetleaf, Palmer amaranth, fat hen, sicklepod
[6] = system: velvetleaf; assay: Greenhouse post-emergent control of velvetleaf by emulsifiable concentrates (Example 29); format: in vivo; conditions: three weeks after treatment
Description: as §1

- Conversion to Dicamba, Dark, Day 0 [1]: 27%
- Conversion to Dicamba, Dark, Day 1 [1]: 81%
- Conversion to Dicamba, Dark, Day 2 [1]: 83%
- Conversion to Dicamba, Dark, Day 3 [1]: 83%
- Conversion to Dicamba, Dark, Day 4 [1]: 80%
- Conversion to Dicamba, Dark, Day 7 [1]: 84%
- Conversion to Dicamba, Dark, Day 14 [1]: 85%
- Conversion to Dicamba, Light, Day 0 [1]: 27%
- Conversion to Dicamba, Light, Day 1 [1]: 75%
- Conversion to Dicamba, Light, Day 2 [1]: 74%
- Conversion to Dicamba, Light, Day 3 [1]: 75%
- Conversion to Dicamba, Light, Day 4 [1]: 74%
- Conversion to Dicamba, Light, Day 7 [1]: 76%
- Conversion to Dicamba, Light, Day 14 [1]: 77%
Compound: COc1ccc(COC(=O)c2c(Cl)ccc(Cl)c2OC)cc1 [Ester 29a, 4-methoxybenzyl ester of dicamba]
- pest or weed control at 140 g/ha ([2]; greenhouse, 140 g/ha, Example 37): 30%
- pest or weed control at 280 g/ha ([2]; greenhouse, 280 g/ha, Example 37): 55%
- pest or weed control at 420 g/ha ([2]; greenhouse, 420 g/ha, Example 37): 74.2%
- pest or weed control at 560 g/ha ([2]; greenhouse, 560 g/ha, Example 37): 81.7%

Compound: COc1c(Cl)ccc(Cl)c1C(=O)Oc1ccc(=O)n(CCC=O)n1 [Ester 33a]
- Conversion to Dicamba, Dark, Day 0 [1]: 13%
- Conversion to Dicamba, Dark, Day 1 [1]: 15%
- Conversion to Dicamba, Dark, Day 2 [1]: 18%
- Conversion to Dicamba, Dark, Day 3 [1]: 18%
- Conversion to Dicamba, Dark, Day 4 [1]: 22%
- Conversion to Dicamba, Dark, Day 7 [1]: 21%
- Conversion to dicamba, Dark, Day 10 [1]: 28%
- Conversion to Dicamba, Dark, Day 14 [1]: 37%
- Conversion to Dicamba, Dark, Day 21 [1]: 50%
- Conversion to Dicamba, Dark, Day 28 [1]: 55%
- Conversion to Dicamba, Light, Day 0 [1]: 13%
- Conversion to Dicamba, Light, Day 1 [1]: 18%
- Conversion to Dicamba, Light, Day 2 [1]: 20%
- Conversion to Dicamba, Light, Day 3 [1]: 19%
- Conversion to Dicamba, Light, Day 4 [1]: 22%
- Conversion to Dicamba, Light, Day 7 [1]: 23%
- Conversion to dicamba, Light, Day 10 [1]: 30%
- Conversion to Dicamba, Light, Day 14 [1]: 42%
- Conversion to Dicamba, Light, Day 21 [1]: 53%
- Conversion to Dicamba, Light, Day 28 [1]: 57%
- pest or weed control at 140 g/ha [2]: 15.8%
- pest or weed control at 280 g/ha [2]: 27.5%
- pest or weed control at 420 g/ha [2]: 22.5%
- pest or weed control at 560 g/ha [2]: 30.8%
- post-emergent efficacy on velvetleaf compared with the salt, in words ([2]; greenhouse, emulsifiable concentrates): reduced post-emergent efficacy

Compound: CCCCOc1ccc(C(=O)COC(=O)c2c(Cl)ccc(Cl)c2OC)cc1 [Ester 10, p-n-Butoxyphenacylmethyl Ester of Dicamba]
- Dark Control % dicamba ([3]; no illumination): 8%
- Conversion to dicamba, 1 day ([3]; simulated sunlight, 1 day): 17%
- Conversion to dicamba, 2 days ([3]; simulated sunlight, 2 days): 19%
- Conversion to dicamba, 3 days ([3]; simulated sunlight, 3 days): 20%
- Conversion to dicamba, 5 days ([3]; simulated sunlight, 5 days): 24%
- Conversion to dicamba, 7 days ([3]; simulated sunlight, 7 days): 28%
- Conversion to dicamba, 11 days ([3]; simulated sunlight, 11 days): 32%
- Conversion to dicamba, 13 days ([3]; simulated sunlight, 13 days): 31%
- Conversion to dicamba, 15 days ([3]; simulated sunlight, 15 days): 32%
- Conversion to dicamba, 19 days ([3]; simulated sunlight, 19 days): 33%
- Dark Control % dicamba ([4]; initial solution kept away from the light source, analyzed at conclusion of study): 8%
- Conversion to dicamba, 1 day ([4]; simulated sunlight 14 hours per day, 35° C., 1 day): 16%
- Conversion to dicamba, 2 days ([4]; simulated sunlight 14 hours per day, 35° C., 2 days): 15%
- Conversion to dicamba, 3 days ([4]; simulated sunlight 14 hours per day, 35° C., 3 days): 16%
- Conversion to dicamba, 5 days ([4]; simulated sunlight 14 hours per day, 35° C., 5 days): 19%
- Conversion to dicamba, 7 days ([4]; simulated sunlight 14 hours per day, 35° C., 7 days): 20%
- Conversion to dicamba, 9 days ([4]; simulated sunlight 14 hours per day, 35° C., 9 days): 29%
- Conversion to dicamba, 12 days ([4]; simulated sunlight 14 hours per day, 35° C., 12 days): 35%
- Conversion to dicamba, 15 days ([4]; simulated sunlight 14 hours per day, 35° C., 15 days): 35%
- control of a number of broadleaf weeds in field testing, in words [5]: proven effective
- % Control of velvetleaf, 140 g/ha ([6]; 140 g dicamba equivalent per hectare): 23%
- % Control of velvetleaf, 280 g/ha ([6]; 280 g dicamba equivalent per hectare): 33%
- % Control of velvetleaf, 420 g/ha ([6]; 420 g dicamba equivalent per hectare): 28%
- % Control of velvetleaf, 560 g/ha ([6]; 560 g dicamba equivalent per hectare): 33%

- Conversion to Dicamba, Dark, Day 0 [1]: 16%
- Conversion to Dicamba, Dark, Day 1 [1]: 37%
- Conversion to Dicamba, Dark, Day 2 [1]: 43%
- Conversion to Dicamba, Dark, Day 3 [1]: 43%
- Conversion to Dicamba, Dark, Day 4 [1]: 44%
- Conversion to Dicamba, Dark, Day 7 [1]: 49%
- Conversion to dicamba, Dark, Day 10 [1]: 50%
- Conversion to Dicamba, Dark, Day 14 [1]: 51%
- Conversion to Dicamba, Dark, Day 21 [1]: 49%
- Conversion to Dicamba, Dark, Day 28 [1]: 50%
- Conversion to Dicamba, Light, Day 0 [1]: 16%
- Conversion to Dicamba, Light, Day 1 [1]: 45%
- Conversion to Dicamba, Light, Day 2 [1]: 48%
- Conversion to Dicamba, Light, Day 3 [1]: 46%
- Conversion to Dicamba, Light, Day 4 [1]: 45%
- Conversion to Dicamba, Light, Day 7 [1]: 46%
- Conversion to dicamba, Light, Day 10 [1]: 50%
- Conversion to Dicamba, Light, Day 14 [1]: 51%
- Conversion to Dicamba, Light, Day 21 [1]: 53%
- Conversion to Dicamba, Light, Day 28 [1]: 53%
Compound: C=C(C(=O)OCC)C(OC(=O)c1c(Cl)ccc(Cl)c1OC)c1ccccc1[N+](=O)[O-] (stereo not shown) [Ester 31a]

Compound: CCOC(=O)CCn1nc(OC(=O)c2c(Cl)ccc(Cl)c2OC)ccc1=O [Ester 35a]
- Conversion to Dicamba, Dark, Day 0 [1]: 19%
- Conversion to Dicamba, Dark, Day 1 [1]: 66%
- Conversion to Dicamba, Dark, Day 2 [1]: 69%
- Conversion to Dicamba, Dark, Day 3 [1]: 68%
- Conversion to Dicamba, Dark, Day 4 [1]: 71%
- Conversion to Dicamba, Dark, Day 7 [1]: 74%
- Conversion to Dicamba, Dark, Day 14 [1]: 70%
- Conversion to Dicamba, Dark, Day 21 [1]: 70%
- Conversion to Dicamba, Dark, Day 28 [1]: 74%
- Conversion to Dicamba, Light, Day 0 [1]: 19%
- Conversion to Dicamba, Light, Day 1 [1]: 57%
- Conversion to Dicamba, Light, Day 2 [1]: 58%
- Conversion to Dicamba, Light, Day 3 [1]: 58%
- Conversion to Dicamba, Light, Day 4 [1]: 62%
- Conversion to Dicamba, Light, Day 7 [1]: 60%
- Conversion to Dicamba, Light, Day 14 [1]: 64%
- Conversion to Dicamba, Light, Day 21 [1]: 63%
- Conversion to Dicamba, Light, Day 28 [1]: 65%
- pest or weed control at 140 g/ha [2]: 35.8%
- pest or weed control at 280 g/ha [2]: 60%
- pest or weed control at 420 g/ha [2]: 85%
- pest or weed control at 560 g/ha [2]: 87.5%
